Square brackets hold non-standard residues; d marks the D form. Ends that are not written are not given here. Cha = N[C@@H](CC1CCCCC1)C(=O)O

These results are taken from patent publication US10596254B2 (priority 2003, dated 2020).

Data set [1] concerns targets labeled with I9V peptide. The data set is described as follows: Chromium release assay of immune splenocytes from immunized HLA A2/Kb mice, I9V-loaded targets. To be noted: two doses of 50 nmoles; E:T ratio of 100. In kind it is in vivo. How it is done: Fourteen days later, the spleens were retrieved. The CTL responses of the immune splenocytes were tested after one round of in vitro stimulation (IVS). […] […]. […] This experiment was repeated four times with similar results each time. Using a two-tailed T test, there was a significant difference of P<0.03 at all E:T ratios. […].
[…]; SEQ ID NO:10). See Hartmann et al., J. Immunol. 164:1617-1624, 2000. The chemical yield and purity of this conjugate were similar to the others synthesized above using CpG 1826 (murine). […] […] The CpG-ODN used in Conjugate 10 also is known under the trade names ProMune™ or Vaxmune™ (Coley Pharmaceutical Group).

The test system of a further data set is I9V-loaded JA2 cells. The experiment in a line: Chromium release assay, cells from immunized HHD II mice, I9V-loaded JA2 targets. In kind it is in vivo. Conditions: three mice each. The source says:
HHD II mice were immunized with 1 nmole of either Conjugate 7 or Conjugate 3 (which is the same as Conjugate 7 but also contains PADRE). […].
To address whether the defect in Conjugate 7 immunogenicity was the missing PADRE TH epitope, immunizations with Conjugate 7 plus PADRE TH were compared to immunizations with Conjugate 7 alone. […]. […] Further, the majority of the stimulating activity of the PADRE epitope is caused by the sequence itself, rather than the artificial junction caused by chimerizing the CTL and TH epitopes, since Conjugate 3 and Conjugate 7 plus PADRE in trans have similar immunogenicity. Similar fusion peptides, including a fusion peptide composed of PADRE and an HPV-specific CTL epitope, have been administered to volunteers and women with cervical neoplasia without causing observable autoimmunity

For data set [2], the system named is recombinant vaccinia virus expressing the HIV-pol gene. Also on record: species or system mice. Conditions: mouse, in vivo.
Data set [3] can be described thus: fmoc spps; Wang resin (substitution about 0.8 mmole/g), Novabiochem; HBTU/DIEA. Conditions: conjugation step, scale approximately 0.22 mmole (0.4 g Fmoc-AA-Wang resin); for final hplc purity: Method B, 260 nm.

For the substance “AKXVAAWTLKAAAILKEPVHGV, X = cyclohexylalanine (AK[Cha]VAAWTLKAAAILKEPVHGV) [PADRE:I9V fusion peptide]”, the target cell lysis in data set [1] stood at 8%. The “immunogenicity (chromium release)” value in the data set with I9V-loaded JA2 cells was “little immunogenicity”. Further, in data set [2], the “protection against viral challenge” value was “equivalently unprotected”.

KSS:PADRE:S9L + Oligo 3: in data set [3], the final hplc purity result was “about 70-80% pure” and the step mass entry is “About 6.0 mg”.

Turning to PADRE:I9V:N:S9L + Oligo 3, in data set [3], the final hplc purity is recorded as 70-80% pure and the step mass result is reported as “About 8.0 mg”.
